Data taken from ChEMBL document CHEMBL4251595, “Green approach for the synthesis of thiophenyl pyrazoles and isoxazoles by adopting 1,3-dipolar cycloaddition methodology and their antimicrobial activity” (2018).
The source made the active and inactive calls. No cut-off for these calls is given here.

Tests used:
Type in all cases: functional
Bacillus subtilis [1] = test: Antimicrobial activity against Bacillus subtilis assessed as zone of inhibition at 100 ug/well after 24 hrs by agar well diffusion method; conditions: for zone of inhibition at 100 µg/disc: read-out: DIZ
Pseudomonas aeruginosa [2] = test: Antimicrobial activity against Pseudomonas aeruginosa assessed as zone of inhibition at 100 ug/well after 24 hrs by agar well diffusion method; conditions: for zone of inhibition at 100 µg/disc: read-out: DIZ
Klebsiella pneumoniae [3] = test: Antimicrobial activity against Klebsiella pneumoniae assessed as zone of inhibition at 100 ug/well after 24 hrs by agar well diffusion method; conditions: for zone of inhibition at 100 µg/disc: read-out: DIZ
Staphylococcus aureus [4] = test: Antimicrobial activity against Staphylococcus aureus assessed as zone of inhibition at 75 ug/well after 24 hrs by agar well diffusion method; conditions: for zone of inhibition at 75 µg/disc: read-out: DIZ
Staphylococcus aureus [5] = test: Antimicrobial activity against Staphylococcus aureus assessed as zone of inhibition at 50 ug/well after 24 hrs by agar well diffusion method; conditions: for zone of inhibition at 50 µg/disc: read-out: DIZ
Penicillium chrysogenum [6] = test: Antifungal activity against Penicillium chrysogenum assessed as zone of inhibition at 100 ug/well after 48 hrs by agar well diffusion method; conditions: for zone of inhibition at 100 µg/disc: read-out: DIZ
Pseudomonas aeruginosa [7] = test: Antimicrobial activity against Pseudomonas aeruginosa assessed as zone of inhibition at 75 ug/well after 24 hrs by agar well diffusion method; conditions: for zone of inhibition at 75 µg/disc: read-out: DIZ
Aspergillus niger [8] = test: Antifungal activity against Aspergillus niger assessed as zone of inhibition at 100 ug/well after 48 hrs by agar well diffusion method; conditions: for zone of inhibition at 100 µg/disc: read-out: DIZ
Klebsiella pneumoniae [9] = test: Antimicrobial activity against Klebsiella pneumoniae assessed as zone of inhibition at 75 ug/well after 24 hrs by agar well diffusion method; conditions: for zone of inhibition at 75 µg/disc: read-out: DIZ
Aspergillus niger [10] = test: Antifungal activity against Aspergillus niger assessed as zone of inhibition at 50 ug/well after 48 hrs by agar well diffusion method; conditions: for zone of inhibition at 50 µg/disc: read-out: DIZ
Klebsiella pneumoniae [11] = test: Antimicrobial activity against Klebsiella pneumoniae assessed as zone of inhibition at 50 ug/well after 24 hrs by agar well diffusion method; conditions: for zone of inhibition at 50 µg/disc: read-out: DIZ
Penicillium chrysogenum [12] = test: Antifungal activity against Penicillium chrysogenum assessed as zone of inhibition at 75 ug/well after 48 hrs by agar well diffusion method; conditions: for zone of inhibition at 75 µg/disc: read-out: DIZ
Bacillus subtilis [13] = test: Antimicrobial activity against Bacillus subtilis assessed as zone of inhibition at 50 ug/well after 24 hrs by agar well diffusion method; conditions: for zone of inhibition at 50 µg/disc: read-out: DIZ
Aspergillus niger [14] = test: Antifungal activity against Aspergillus niger assessed as zone of inhibition at 75 ug/well after 48 hrs by agar well diffusion method; conditions: for zone of inhibition at 75 µg/disc: read-out: DIZ
Bacillus subtilis [15] = test: Antimicrobial activity against Bacillus subtilis assessed as zone of inhibition at 75 ug/well after 24 hrs by agar well diffusion method; conditions: for zone of inhibition at 75 µg/disc: read-out: DIZ
Staphylococcus aureus [16] = test: Antimicrobial activity against Staphylococcus aureus assessed as zone of inhibition at 100 ug/well after 24 hrs by agar well diffusion method; conditions: for zone of inhibition at 100 µg/disc: read-out: DIZ
Pseudomonas aeruginosa [17] = test: Antimicrobial activity against Pseudomonas aeruginosa assessed as zone of inhibition at 50 ug/well after 24 hrs by agar well diffusion method; conditions: for zone of inhibition at 50 µg/disc: read-out: DIZ
Penicillium chrysogenum [18] = test: Antifungal activity against Penicillium chrysogenum assessed as zone of inhibition at 50 ug/well after 48 hrs by agar well diffusion method; conditions: for zone of inhibition at 50 µg/disc: read-out: DIZ

SMILES | zone of inhibition at 100 µg/disc (Bacillus subtilis [1]) [mm] | diameter of the inhibition zone (DIZ) (Pseudomonas aeruginosa [2]) | zone of inhibition at 100 µg/disc (Klebsiella pneumoniae [3]) [mm] | zone of inhibition at 75 µg/disc (Staphylococcus aureus [4]) [mm] | zone of inhibition at 50 µg/disc (Staphylococcus aureus [5]) [mm] | zone of inhibition at 100 µg/disc (Penicillium chrysogenum [6]) [mm] | diameter of the inhibition zone (DIZ) (Pseudomonas aeruginosa [7]) | zone of inhibition at 100 µg/disc (Aspergillus niger [8]) [mm] | zone of inhibition at 75 µg/disc (Klebsiella pneumoniae [9]) [mm] | zone of inhibition at 50 µg/disc (Klebsiella pneumoniae [11]) [mm] | zone of inhibition at 50 µg/disc (Bacillus subtilis [13]) [mm] | zone of inhibition at 75 µg/disc (Aspergillus niger [14]) [mm] | zone of inhibition at 75 µg/disc (Bacillus subtilis [15]) [mm] | zone of inhibition at 100 µg/disc (Staphylococcus aureus [16]) [mm] | diameter of the inhibition zone (DIZ) (Pseudomonas aeruginosa [17]) | diameter of the inhibition zone (DIZ) (Penicillium chrysogenum [18]) | diameter of the inhibition zone (DIZ) (Staphylococcus aureus [4]) | diameter of the inhibition zone (DIZ) (Staphylococcus aureus [5]) | diameter of the inhibition zone (DIZ) (Aspergillus niger [10]) | diameter of the inhibition zone (DIZ) (Penicillium chrysogenum [12]) | other results
O=C(NS(=O)(=O)C1C(c2ccccc2)=NOC1c1ccc([N+](=O)[O-])cc1)c1ccc(Cl)s1 (stereo not drawn) | 21 | inactive | 13 | 14 | 13 | 12 | inactive | 15 | 11 | 9 | 16 | 12 | 19 | 16 | inactive | inactive |  |  |  |  | zone of inhibition at 50 µg/disc (Aspergillus niger [10]): 9 mm; zone of inhibition at 75 µg/disc (Penicillium chrysogenum [12]): 9 mm
Cc1ccc(C2ON=C(c3ccccc3)C2S(=O)(=O)NC(=O)c2cccs2)cc1 (stereo not drawn) |  | inactive |  |  |  |  | inactive |  |  |  |  |  |  |  | inactive | inactive | inactive | inactive | inactive | inactive | diameter of the inhibition zone (DIZ) (Bacillus subtilis [1]): inactive; diameter of the inhibition zone (DIZ) (Klebsiella pneumoniae [3]): inactive; diameter of the inhibition zone (DIZ) (Penicillium chrysogenum [6]): inactive; diameter of the inhibition zone (DIZ) (Aspergillus niger [8]): inactive; diameter of the inhibition zone (DIZ) (Klebsiella pneumoniae [9]): inactive; diameter of the inhibition zone (DIZ) (Klebsiella pneumoniae [11]): inactive; diameter of the inhibition zone (DIZ) (Bacillus subtilis [13]): inactive; diameter of the inhibition zone (DIZ) (Aspergillus niger [14]): inactive; diameter of the inhibition zone (DIZ) (Bacillus subtilis [15]): inactive; diameter of the inhibition zone (DIZ) (Staphylococcus aureus [16]): inactive
O=C(NS(=O)(=O)c1c(-c2ccccc2)noc1-c1ccccc1)c1ccc(Cl)s1 | 35 |  | 32 | 26 | 23 | 22 |  | 28 | 29 | 26 | 30 | 24 | 32 | 28 |  |  |  |  |  |  | zone of inhibition at 100 µg/disc (Pseudomonas aeruginosa [2]): 21 mm; zone of inhibition at 75 µg/disc (Pseudomonas aeruginosa [7]): 19 mm; zone of inhibition at 50 µg/disc (Aspergillus niger [10]): 21 mm; zone of inhibition at 75 µg/disc (Penicillium chrysogenum [12]): 19 mm; zone of inhibition at 50 µg/disc (Pseudomonas aeruginosa [17]): 17 mm; zone of inhibition at 50 µg/disc (Penicillium chrysogenum [18]): 17 mm
O=C(NS(=O)(=O)/C=C/c1ccccc1)c1ccc(Cl)s1 | 27 |  | 25 | 19 | 16 | 17 |  | 21 | 22 | 19 | 22 | 17 | 24 | 21 |  |  |  |  |  |  | zone of inhibition at 100 µg/disc (Pseudomonas aeruginosa [2]): 17 mm; zone of inhibition at 75 µg/disc (Pseudomonas aeruginosa [7]): 14 mm; zone of inhibition at 50 µg/disc (Aspergillus niger [10]): 15 mm; zone of inhibition at 75 µg/disc (Penicillium chrysogenum [12]): 13 mm; zone of inhibition at 50 µg/disc (Pseudomonas aeruginosa [17]): 12 mm; zone of inhibition at 50 µg/disc (Penicillium chrysogenum [18]): 10 mm
Cc1ccc(C2ON=C(c3ccccc3)C2S(=O)(=O)NC(=O)c2ccc(Cl)s2)cc1 (stereo not drawn) |  | inactive |  |  |  |  | inactive |  |  |  |  |  |  |  | inactive | inactive | inactive | inactive | inactive | inactive | diameter of the inhibition zone (DIZ) (Bacillus subtilis [1]): inactive; diameter of the inhibition zone (DIZ) (Klebsiella pneumoniae [3]): inactive; diameter of the inhibition zone (DIZ) (Penicillium chrysogenum [6]): inactive; diameter of the inhibition zone (DIZ) (Aspergillus niger [8]): inactive; diameter of the inhibition zone (DIZ) (Klebsiella pneumoniae [9]): inactive; diameter of the inhibition zone (DIZ) (Klebsiella pneumoniae [11]): inactive; diameter of the inhibition zone (DIZ) (Bacillus subtilis [13]): inactive; diameter of the inhibition zone (DIZ) (Aspergillus niger [14]): inactive; diameter of the inhibition zone (DIZ) (Bacillus subtilis [15]): inactive; diameter of the inhibition zone (DIZ) (Staphylococcus aureus [16]): inactive
O=C(NS(=O)(=O)C1C(c2ccccc2)=NOC1c1ccccc1)c1ccc(Cl)s1 (stereo not drawn) | 16 | inactive | 12 |  |  | 7 | inactive | 12 | 10 | 8 | 10 | 9 | 12 | 8 | inactive | inactive | inactive | inactive | inactive | inactive | 
Cc1ccc(/C=C/S(=O)(=O)NC(=O)c2ccc(Cl)s2)cc1 | 22 |  | 17 | 13 | 10 | 12 |  | 14 | 15 | 14 | 17 | 11 | 19 | 14 | inactive | inactive |  |  |  |  | zone of inhibition at 100 µg/disc (Pseudomonas aeruginosa [2]): 12 mm; zone of inhibition at 75 µg/disc (Pseudomonas aeruginosa [7]): 11 mm; zone of inhibition at 50 µg/disc (Aspergillus niger [10]): 9 mm; zone of inhibition at 75 µg/disc (Penicillium chrysogenum [12]): 10 mm
Cc1ccc(C2C(S(=O)(=O)NC(=O)c3ccc(Cl)s3)C(c3ccccc3)=NN2c2ccccc2)cc1 (stereo not drawn) |  | inactive |  |  |  |  | inactive |  |  |  |  |  |  |  | inactive | inactive | inactive | inactive | inactive | inactive | diameter of the inhibition zone (DIZ) (Bacillus subtilis [1]): inactive; diameter of the inhibition zone (DIZ) (Klebsiella pneumoniae [3]): inactive; diameter of the inhibition zone (DIZ) (Penicillium chrysogenum [6]): inactive; diameter of the inhibition zone (DIZ) (Aspergillus niger [8]): inactive; diameter of the inhibition zone (DIZ) (Klebsiella pneumoniae [9]): inactive; diameter of the inhibition zone (DIZ) (Klebsiella pneumoniae [11]): inactive; diameter of the inhibition zone (DIZ) (Bacillus subtilis [13]): inactive; diameter of the inhibition zone (DIZ) (Aspergillus niger [14]): inactive; diameter of the inhibition zone (DIZ) (Bacillus subtilis [15]): inactive; diameter of the inhibition zone (DIZ) (Staphylococcus aureus [16]): inactive
O=C(NS(=O)(=O)C1C(c2ccccc2)=NN(c2ccccc2)C1c1ccccc1)c1cccs1 (stereo not drawn) |  | inactive |  |  |  |  | inactive |  |  |  |  |  |  |  | inactive | inactive | inactive | inactive | inactive | inactive | diameter of the inhibition zone (DIZ) (Bacillus subtilis [1]): inactive; diameter of the inhibition zone (DIZ) (Klebsiella pneumoniae [3]): inactive; diameter of the inhibition zone (DIZ) (Penicillium chrysogenum [6]): inactive; diameter of the inhibition zone (DIZ) (Aspergillus niger [8]): inactive; diameter of the inhibition zone (DIZ) (Klebsiella pneumoniae [9]): inactive; diameter of the inhibition zone (DIZ) (Klebsiella pneumoniae [11]): inactive; diameter of the inhibition zone (DIZ) (Bacillus subtilis [13]): inactive; diameter of the inhibition zone (DIZ) (Aspergillus niger [14]): inactive; diameter of the inhibition zone (DIZ) (Bacillus subtilis [15]): inactive; diameter of the inhibition zone (DIZ) (Staphylococcus aureus [16]): inactive
O=C(NS(=O)(=O)C1C(c2ccccc2)=NOC1c1ccccc1)c1cccs1 (stereo not drawn) | 13 | inactive | 9 |  |  |  | inactive |  |  |  | 7 |  | 10 |  | inactive | inactive | inactive | inactive | inactive | inactive | diameter of the inhibition zone (DIZ) (Penicillium chrysogenum [6]): inactive; diameter of the inhibition zone (DIZ) (Aspergillus niger [8]): inactive; diameter of the inhibition zone (DIZ) (Klebsiella pneumoniae [9]): inactive; diameter of the inhibition zone (DIZ) (Klebsiella pneumoniae [11]): inactive; diameter of the inhibition zone (DIZ) (Aspergillus niger [14]): inactive; diameter of the inhibition zone (DIZ) (Staphylococcus aureus [16]): inactive
O=C(NS(=O)(=O)c1c(-c2ccccc2)nn(-c2ccccc2)c1-c1ccccc1)c1cccs1 | 26 |  | 23 | 18 | 15 | 16 |  | 20 | 20 | 18 | 22 | 16 | 23 | 20 |  |  |  |  |  |  | zone of inhibition at 100 µg/disc (Pseudomonas aeruginosa [2]): 12 mm; zone of inhibition at 75 µg/disc (Pseudomonas aeruginosa [7]): 10 mm; zone of inhibition at 50 µg/disc (Aspergillus niger [10]): 15 mm; zone of inhibition at 75 µg/disc (Penicillium chrysogenum [12]): 14 mm; zone of inhibition at 50 µg/disc (Pseudomonas aeruginosa [17]): 9 mm; zone of inhibition at 50 µg/disc (Penicillium chrysogenum [18]): 12 mm
